Test results reported in US5409949A, “Methylen-oxindole derivatives compositions and tyrosine kinase inhibition therewith” (Farmitalia Carlo Erba S.r.l., priority 1991, dated 1995).

Legend:
[1] = biological target: v-abl kinase; experiment: Myelin Basic Protein phosphorylation assay; format: biochemical; details: myelin basic protein 56 μM as substrate, 10 μM cold ATP, pH 8.0, 22° C.
Method: (§1) The tyrosine specific protein kinase activity of these compounds is shown by the in vitro tests described herebelow.
(§2) The enzyme used in the Abelson tyrosine kinase p95^v-ab which was produced and isolated as follows: 1 Liter cultures of HB-130 cells in LB medium, supplemented with ampicillin, were grown at 30° C. as described by Wang et al. in J. Biol. Chem. 260, 64 (1985). The expression of v-abl protein was induced by shifting the temperature to 42° C. for 3-4 h. The bacterial cells were collected on ice, centrifuged and frozen in liquid nitrogen. The cell pellet was lysed as described by Ferguson et al. in J. Biol. Chem. 260, 3652 (1985) and in Biochem. J. 257, 321 (1989). Briefly, bacterial proteins were removed by differential solubilization with sodium deoxycholate, NaCl and β-octylglucopyranoside in different steps. Insoluble v-abl protein was solubilized with 2M KSCN and dialyzed against 100 volumes of 50 mM Tris-HCl, pH 7.5, 1 mM EDTA and 0.1 mM dithiothreitol (buffer A). The soluble proteins were separated by chromatography on a prepacked Mono-Q anion exchange column in a f.p.l.c. system. […]
The in vitro test with Myelin Basic Protein as substrate was carried out as follows: Protein phosphorylation was performed by incubating 40 ng of purified v-abl kinase, 1.5 μCi […] Bands were located by autoradiography, excised from gel and counted in a liquid scintillation counter.

[2] = biological target: v-abl kinase; experiment: Autophosphorylation assay (v-abl kinase); format: biochemical; details: immunoprecipitated v-abl kinase, 10 μM ATP, 15 min, room temperature
Method: as §1
as §2, with “A).” for “A). The soluble proteins were separated by chromatography on a prepacked Mono-Q anion exchange column in a f.p.l.c. system.”
For the autophosphorylation assay the v-abl kinase was immunoprecipitated with antiphosphotyrosine antibodies and the resulting immunocomplex analyzed in 50 μl of kinase buffer in the presence of 10 μM ATP and 10 μCi […]. […] Bands were located by autoradiography, excised and counted as above. […]

Compound	IC50 [1] [nM]	IC50 [2] [nM]
O=C1Nc2ccccc2C1=Cc1c[nH]c2ccccc12 [3-[(3'-indolyl)methylen]-2-oxindole]	600	10000
O=C1Nc2ccc(O)cc2C1=Cc1c[nH]c2ccccc12 [5-Hydroxy-3-[(3'-indolyl)methylene]-2-oxindole]	400	400
